{
  "source": "PubChem BioAssay (NCI)",
  "test_in_all_cases": "inhibition of tumour cell growth, NCI panel, 48 h",
  "key": {"786-0 renal": {"system": "786-0 renal"}, "HT29 colon": {"system": "HT29 colon"}, "M14 melanoma": {"system": "M14 melanoma"}, "NCI-H226 lung": {"system": "NCI-H226 lung"}, "LOX IMVI melanoma": {"system": "LOX IMVI melanoma"}, "OVCAR-5 ovarian": {"system": "OVCAR-5 ovarian"}, "DU-145 prostate": {"system": "DU-145 prostate"}, "SW-620 colon": {"system": "SW-620 colon"}, "IGROV1 ovarian": {"system": "IGROV1 ovarian"}, "TK-10 renal": {"system": "TK-10 renal"}, "ACHN renal": {"system": "ACHN renal"}, "HOP-92 NSCLC": {"system": "HOP-92 NSCLC"}, "UO-31 renal": {"system": "UO-31 renal"}, "MCF7 breast": {"system": "MCF7 breast"}, "RPMI-8226 leukemia": {"system": "RPMI-8226 leukemia"}, "NCI-H460 lung": {"system": "NCI-H460 lung"}, "KM12 colon": {"system": "KM12 colon"}, "A498 renal": {"system": "A498 renal"}, "SF-539 CNS": {"system": "SF-539 CNS"}, "HOP-62 NSCLC": {"system": "HOP-62 NSCLC"}, "RXF 393 renal": {"system": "RXF 393 renal"}, "UACC-257 melanoma": {"system": "UACC-257 melanoma"}, "SK-MEL-2 melanoma": {"system": "SK-MEL-2 melanoma"}, "COLO 205 colon": {"system": "COLO 205 colon"}, "SK-MEL-28 melanoma": {"system": "SK-MEL-28 melanoma"}, "NCI-H522 lung": {"system": "NCI-H522 lung"}, "PC-3 prostate": {"system": "PC-3 prostate"}, "NCI-H23 lung": {"system": "NCI-H23 lung"}, "MOLT-4 leukemia": {"system": "MOLT-4 leukemia"}},
  "note": "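Cells were grown in 96-well plates and exposed to each compound for 48 hours at five concentrations; endpoints were interpolated linearly between bracketing concentrations, or set to the highest concentration if not reached. GI50 marks 50% less growth. TGI: total growth inhibition.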",
  "data": [
    {"smiles": "COc1nc(N)nc2c1ncn2[C@@H]1O[C@H](CO)[C@@H](O)[C@@H]1O", "values": [
      {"measurement": "GI50", "setting": "786-0 renal", "result": "> 100", "unit": "µM"},
      {"measurement": "TGI", "setting": "786-0 renal", "result": "> 100", "unit": "µM"},
      {"measurement": "GI50", "setting": "HT29 colon", "result": "> 100", "unit": "µM"},
      {"measurement": "TGI", "setting": "HT29 colon", "result": "> 100", "unit": "µM"},
      {"measurement": "GI50", "setting": "M14 melanoma", "result": "> 100", "unit": "µM"},
      {"measurement": "TGI", "setting": "M14 melanoma", "result": "> 100", "unit": "µM"},
      {"measurement": "GI50", "setting": "NCI-H226 lung", "result": "> 100", "unit": "µM"},
      {"measurement": "TGI", "setting": "NCI-H226 lung", "result": "> 100", "unit": "µM"},
      {"measurement": "GI50", "setting": "LOX IMVI melanoma", "result": "> 100", "unit": "µM"},
      {"measurement": "TGI", "setting": "LOX IMVI melanoma", "result": "> 100", "unit": "µM"},
      {"measurement": "GI50", "setting": "OVCAR-5 ovarian", "result": "> 100", "unit": "µM"},
      {"measurement": "TGI", "setting": "OVCAR-5 ovarian", "result": "> 100", "unit": "µM"},
      {"measurement": "GI50", "setting": "DU-145 prostate", "result": "> 100", "unit": "µM"},
      {"measurement": "TGI", "setting": "DU-145 prostate", "result": "> 100", "unit": "µM"},
      {"measurement": "GI50", "setting": "SW-620 colon", "result": "> 100", "unit": "µM"},
      {"measurement": "TGI", "setting": "SW-620 colon", "result": "> 100", "unit": "µM"},
      {"measurement": "GI50", "setting": "IGROV1 ovarian", "result": "> 100", "unit": "µM"},
      {"measurement": "TGI", "setting": "IGROV1 ovarian", "result": "> 100", "unit": "µM"},
      {"measurement": "GI50", "setting": "TK-10 renal", "result": "> 100", "unit": "µM"},
      {"measurement": "TGI", "setting": "TK-10 renal", "result": "> 100", "unit": "µM"},
      {"measurement": "GI50", "setting": "ACHN renal", "result": "> 100", "unit": "µM"},
      {"measurement": "TGI", "setting": "ACHN renal", "result": "> 100", "unit": "µM"},
      {"measurement": "GI50", "setting": "HOP-92 NSCLC", "result": "> 100", "unit": "µM"},
      {"measurement": "TGI", "setting": "HOP-92 NSCLC", "result": "> 100", "unit": "µM"},
      {"measurement": "GI50", "setting": "UO-31 renal", "result": "> 100", "unit": "µM"},
      {"measurement": "TGI", "setting": "UO-31 renal", "result": "> 100", "unit": "µM"},
      {"measurement": "GI50", "setting": "MCF7 breast", "result": "> 100", "unit": "µM"},
      {"measurement": "TGI", "setting": "MCF7 breast", "result": "> 100", "unit": "µM"},
      {"measurement": "GI50", "setting": "RPMI-8226 leukemia", "result": "> 100", "unit": "µM"},
      {"measurement": "TGI", "setting": "RPMI-8226 leukemia", "result": "> 100", "unit": "µM"},
      {"measurement": "GI50", "setting": "NCI-H460 lung", "result": "> 100", "unit": "µM"},
      {"measurement": "TGI", "setting": "NCI-H460 lung", "result": "> 100", "unit": "µM"},
      {"measurement": "GI50", "setting": "KM12 colon", "result": "> 100", "unit": "µM"},
      {"measurement": "TGI", "setting": "KM12 colon", "result": "> 100", "unit": "µM"},
      {"measurement": "GI50", "setting": "A498 renal", "result": "> 100", "unit": "µM"},
      {"measurement": "TGI", "setting": "A498 renal", "result": "> 100", "unit": "µM"},
      {"measurement": "GI50", "setting": "SF-539 CNS", "result": "> 100", "unit": "µM"},
      {"measurement": "TGI", "setting": "SF-539 CNS", "result": "> 100", "unit": "µM"},
      {"measurement": "GI50", "setting": "HOP-62 NSCLC", "result": "> 100", "unit": "µM"},
      {"measurement": "TGI", "setting": "HOP-62 NSCLC", "result": "> 100", "unit": "µM"},
      {"measurement": "GI50", "setting": "RXF 393 renal", "result": "> 100", "unit": "µM"},
      {"measurement": "TGI", "setting": "RXF 393 renal", "result": "> 100", "unit": "µM"},
      {"measurement": "GI50", "setting": "UACC-257 melanoma", "result": "> 100", "unit": "µM"},
      {"measurement": "TGI", "setting": "UACC-257 melanoma", "result": "> 100", "unit": "µM"},
      {"measurement": "GI50", "setting": "SK-MEL-2 melanoma", "result": "> 100", "unit": "µM"},
      {"measurement": "TGI", "setting": "SK-MEL-2 melanoma", "result": "> 100", "unit": "µM"},
      {"measurement": "GI50", "setting": "COLO 205 colon", "result": "> 100", "unit": "µM"},
      {"measurement": "TGI", "setting": "COLO 205 colon", "result": "> 100", "unit": "µM"},
      {"measurement": "GI50", "setting": "SK-MEL-28 melanoma", "result": "> 100", "unit": "µM"},
      {"measurement": "TGI", "setting": "SK-MEL-28 melanoma", "result": "> 100", "unit": "µM"},
      {"measurement": "GI50", "setting": "NCI-H522 lung", "result": "> 100", "unit": "µM"},
      {"measurement": "TGI", "setting": "NCI-H522 lung", "result": "> 100", "unit": "µM"},
      {"measurement": "GI50", "setting": "PC-3 prostate", "result": "> 100", "unit": "µM"},
      {"measurement": "TGI", "setting": "PC-3 prostate", "result": "> 100", "unit": "µM"},
      {"measurement": "GI50", "setting": "NCI-H23 lung", "result": "> 100", "unit": "µM"},
      {"measurement": "TGI", "setting": "NCI-H23 lung", "result": "> 100", "unit": "µM"},
      {"measurement": "GI50", "setting": "MOLT-4 leukemia", "result": 9.51, "unit": "µM"},
      {"measurement": "TGI", "setting": "MOLT-4 leukemia", "result": "> 100", "unit": "µM"}
    ]}
  ]
}
